The record followed here is patent US9770026B2, “Substituted pyrimidine compound and uses thereof” (Shenyang Sinochem Agrochemicals R&D Co., Ltd., priority 2012, dated 2017).

Test [1] relates to Green peach aphids (Myzus Persicae Sulzer). Description: bioactivity test against green peach aphid, airbrush foliar spray. Type of test: in vivo. The note with it: for pest or weed control at 10 µg/mL / pest or weed control at 100 µg/mL / pest or weed control at 600 µg/mL / Insecticidal activity against peach aphid (%): contrastive test; for pest or weed control at 10 µg/mL / pest or weed control at 100 µg/mL / pest or weed control at 600 µg/mL: read-out: Insecticidal activity against peach aphid (%). In outline: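 Death rate was scored at 48 hrs, held at 25±1 C and 60±5% RH, following airbrush foliar spray (0.5 mL, 10 psi) onto cabbage leaf discs bearing about 15-30 aphids. Test solutions: compound dissolved in 1:1 acetone:methanol, brought to concentration with 0.1% tween 80 water.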

A further test relates to Diamond back moth. Kind of test: insecticidal activity against diamond back moth, airbrush spray. Type of test: in vivo. The method, boiled down: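 Airbrush leaf-disc spray test: both faces of 2 cm cabbage discs received 0.5 ml of test solution at 0.7 kg/cm^2. Solutions were made in acetone:methanol (1:1) and brought to concentration with 0.1% Tween 80 in water. Ten second-instar larvae per disc, triplicates, were held at 25° C and 60˜70% R.H., with mortality recorded at 72 hrs.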

In the next test the test system is corn rust. Description: protectant activity in vivo against corn rust. The note with it: for pest or weed control at 6.25 µg/mL: read-out: control effect against corn rust (%), 6.25 mg/L; for pest or weed control at 25 µg/mL: read-out: control effect against corn rust (%), 25 mg/L; for pest or weed control at 100 µg/mL: read-out: control effect against corn rust (%), 100 mg/L; for pest or weed control at 400 µg/mL: read-out: control effect against corn rust (%), 400 mg/L.

Another test concerns armyworm. Description: bioactivity test against armyworm, airbrush spray. Type of test: in vivo. To be noted: for control (test results against armyworm): mortality after 72 h.
A further test has as its system wheat powdery mildew. Description: protectant activity in vivo against wheat powdery mildew. The note with it: for pest or weed control at 6.25 µg/mL: read-out: control effect against wheat powdery mildew (%), 6.25 mg/L; for pest or weed control at 25 µg/mL: read-out: control effect against wheat powdery mildew (%), 25 mg/L; for pest or weed control at 100 µg/mL: read-out: control effect against wheat powdery mildew (%), 100 mg/L; for pest or weed control at 400 µg/mL: read-out: control effect against wheat powdery mildew (%), 400 mg/L; for protectant activity against wheat powdery mildew in vivo: 400 ppm.

In the next test the test system is carmine spider mite. Description: bioactivity test against carmine spider mite, airbrush spray. Type of test: in vivo. To be noted: for pest or weed control at 100 µg/mL: 100 mg/L; for pest or weed control at 100 µg/mL / pest or weed control at 600 µg/mL / pest or weed control at 10 µg/mL: read-out: Insecticidal activity against carmine spider mite (% ); for pest or weed control at 10 µg/mL: 10 mg/L. The method, boiled down: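 Broadbean seedlings infested with adult mites were sprayed with compound (acetone/methanol stock diluted in 0.1% Tween 80 water) by airbrush at 0.7 kg/cm^2, 0.5 ml. Three replicates were run. Mortality was scored after 72 hrs.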

In another test the test system is cucumber downy mildew. Description: protectant activity in vivo against cucumber downy mildew. To be noted: for control effect against cucumber downy mildew (%): protectant activity.
[2] abbreviates: Myzus persicae, foliar, 48 h, 10 mg/L.
The mark [3] stands for this setting: Myzus persicae, foliar, 48 h, 100 mg/L.
[4] abbreviates: Myzus persicae, foliar, 48 h, 600 mg/L.
Setting [5] is: Zea mays, 168 h, protectant activity.
[6] abbreviates: 72 h, 600 mg/L, read-out: Insecticidal activity against armyworm (%).
Where [7] appears, read: Triticum aestivum, 168 h, protectant activity.
Where [8] appears, read: Tetranychus cinnabarinus, 72 h, contrastive test.
Where [9] appears, read: Tetranychus cinnabarinus, 72 h, 600 mg/L, contrastive test.
Where [10] appears, read: 100 ppm, death rate after 48 hrs.
[11] abbreviates: 600 ppm, death rate after 48 hrs.
Where [12] appears, read: 100 ppm, mortality after 72 hrs.
[13] abbreviates: 600 ppm, mortality after 72 hrs.

On to `FC(F)(F)c1ccc(Oc2ccc(CCNc3ncnc4ccccc34)cc2)nc1` [CK12, reference compound], for which the pest or weed control at 10 µg/mL in test [1] (setting [2]) is 73%; with Diamond back moth (72 h, 10 mg/L), 0%; in the test on armyworm (72 h, 10 mg/L, read-out: Insecticidal activity against armyworm (%)), 0%. Besides, the pest or weed control at 100 µg/mL came to 100% in test [1] (setting [3]); 35% in the test with Diamond back moth (72 h, 100 mg/L); 100% in the test on corn rust (setting [5]); 20% in the test on armyworm (72 h, 100 mg/L, read-out: Insecticidal activity against armyworm (%)); 30% with wheat powdery mildew (setting [7]); 41% in the test on carmine spider mite (setting [8]). The pest or weed control at 600 µg/mL in test [1] (setting [4]) came to 100%; in the test on Diamond back moth (72 h, 600 mg/L), 100%; with armyworm (setting [6]) it was 86%; with carmine spider mite (setting [9]), 100%. Further, the pest or weed control at 6.25 µg/mL came out at 75% in the test on corn rust (setting [5]) and 0% with wheat powdery mildew (setting [7]). In addition, the pest or weed control at 25 µg/mL is 85% in the test on corn rust (setting [5]) and 0% in the test on wheat powdery mildew (setting [7]). The pest or weed control at 400 µg/mL with corn rust (setting [5]) turned out to be 100%; in the test on wheat powdery mildew (setting [7]), 80%.

As to `Cc1ncnc(NC(C)c2ccc(Oc3ccc(C(F)(F)F)cc3Cl)cc2)c1Cl` (centres unmarked) [CK30, reference compound], the pest or weed control at 10 µg/mL in test [1] (setting [2]) was 0%; in the test with carmine spider mite (setting [8]) it was 28%. The pest or weed control at 100 µg/mL is 50% in test [1] (setting [3]), 0% in the test on corn rust (setting [5]), 80% with wheat powdery mildew (setting [7]) and 100% in the test on carmine spider mite (setting [8]). Moreover, the pest or weed control at 600 µg/mL in test [1] (setting [4]) worked out at 93%; in the test with Diamond back moth (72 h, 600 mg/L), 0%; in the test with armyworm (setting [6]), 57%; in the test on carmine spider mite (setting [9]) it was 100%. The pest or weed control at 6.25 µg/mL in the test on corn rust (setting [5]) and with wheat powdery mildew (setting [7]) was 0% in each case. Besides, the pest or weed control at 25 µg/mL was 0% in the test on corn rust (setting [5]) and 20% with wheat powdery mildew (setting [7]). Besides, the values for the pest or weed control at 400 µg/mL with corn rust (setting [5]) and in the test with wheat powdery mildew (setting [7]) were 0% and 100%, respectively.

On to `CCc1ncnc(NCc2ccc(Oc3nc(Cl)c(Cl)cc3Cl)cc2)c1Cl` [CK36, reference compound], for which the pest or weed control at 10 µg/mL in test [1] (setting [2]) is 0%; with Diamond back moth (72 h, 10 mg/L), 0%. Moreover, the pest or weed control at 100 µg/mL in test [1] (setting [3]) came to 14%; in the test on Diamond back moth (72 h, 100 mg/L), 0%; in the test with corn rust (setting [5]) it was 60%; with wheat powdery mildew (setting [7]) it was 80%. In addition, the pest or weed control at 600 µg/mL in test [1] (setting [4]) stood at 90%; in the test with Diamond back moth (72 h, 600 mg/L), 20%; with armyworm (setting [6]), 0%; with carmine spider mite (setting [9]), 0%. The pest or weed control at 6.25 µg/mL with corn rust (setting [5]) and with wheat powdery mildew (setting [7]) was 0% throughout. The figures for the pest or weed control at 25 µg/mL with corn rust (setting [5]) and in the test on wheat powdery mildew (setting [7]) were 40% and 60%, respectively. The pest or weed control at 400 µg/mL in the test with corn rust (setting [5]) and in the test with wheat powdery mildew (setting [7]) was 100% throughout.

For the compound `CC(Cl)c1ncnc(NCCc2ccc(Oc3ncc(C(F)(F)F)cc3Cl)cc2)c1Cl` (centres unmarked) [CK44, reference compound], the “Insecticidal activity against peach aphid (%)” value in test [1] (2.5 mg/L) is given as 0%; in test [1] (5 mg/L) it was 19%; in test [1] (10 mg/L) it was 35%; in test [1] (100 mg/L), 98%; in test [1] (600 mg/L) it was 100%. Further, the “Insecticidal activity against diamond back moth (%)” value in the test on Diamond back moth (10 mg/L) came out at 10%; in the test on Diamond back moth (100 mg/L), 25%; in the test on Diamond back moth (600 mg/L) it was 80%. Moreover, in the test with corn rust (400 mg/L, protectant activity), the “control effect against corn rust (%)” value is 85%. The “Insecticidal activity against armyworm (%)” value in the test on armyworm (600 mg/L) turned out to be 0%. For the same compound, the “control effect against wheat powdery mildew (%)” value in the test on wheat powdery mildew (400 mg/L, protectant activity) came out at 0%. For the same compound, the “Insecticidal activity against carmine spider mite (% )” value in the test with carmine spider mite (600 mg/L, contrastive test) amounted to 0%.

For `Cc1ncnc(NCCc2ccc(Oc3ccc(C(F)(F)F)cn3)cc2)c1Cl` [Compound I-6729], the “control (test results against green peach aphid)” value in test [1] (setting [10]) and in test [1] (setting [11]) was 100% each time. Also, in test [1] (Myzus persicae, foliar, 48 h, 10 ppm, death rate after 48 hrs), the pest or weed control at 10 ppm stood at 100%. Also, the pest or weed control at 600 ppm is 100% in the test with Diamond back moth (72 h, 600 ppm, mortality after 72 hrs, read-out: control (test results against diamond back moth)) and 100% in the test with carmine spider mite (Tetranychus cinnabarinus, 72 h, 600 ppm, mortality after 72 hrs). For the same compound, the “protectant activity against corn rust in vivo” value in the test with corn rust (25 ppm) and in the test on corn rust (400 ppm) was 100% throughout. Besides, the pest or weed control at 100 ppm came to 100% in the test with corn rust (Zea mays, 168 h, read-out: protectant activity against corn rust in vivo, 100 ppm) and 100% with wheat powdery mildew (Triticum aestivum, 168 h, read-out: protectant activity against wheat powdery mildew in vivo, 100 ppm). Further, the “control (test results against armyworm)” value with armyworm (600 ppm) came to 100%. Further, the “protectant activity against wheat powdery mildew in vivo” value in the test on wheat powdery mildew stood at 100%. Besides, the “Insecticidal activity against carmine spider mite (% )” value in the test with carmine spider mite (2.5 mg/L) stood at 64%; in the test on carmine spider mite (5 mg/L), 78%. In addition, the “control against carmine spider mite” value with carmine spider mite (setting [12]) is 100%. In addition, in the test on carmine spider mite (setting [8]), the pest or weed control at 10 µg/mL came out at 87%. Further, in the test with carmine spider mite (setting [8]), the pest or weed control at 100 µg/mL turned out to be 100%. For the same compound, the pest or weed control at 600 µg/mL in the test with carmine spider mite (setting [9]) was found to be 100%.

As to `CCc1ncnc(NCCc2ccc(Oc3ccc(Cl)cc3)nc2)c1Cl` [III-187], the “Insecticidal activity against peach aphid (%)” value in test [1] (10 mg/L), in test [1] (100 mg/L) and in test [1] (600 mg/L) was 100% throughout. Also, the “control (test results against green peach aphid)” value is listed as 100% in test [1] (10 ppm, death rate after 48 hrs); 100% in test [1] (setting [10]); 100% in test [1] (setting [11]). In addition, the “control (test results against diamond back moth)” value with Diamond back moth (setting [13]) amounted to 100%. In addition, the “Insecticidal activity against armyworm (%)” value with armyworm (10 mg/L) is given as 95%; in the test with armyworm (100 mg/L) it was 100%; in the test on armyworm (600 mg/L) it was 100%. The “control (test results against armyworm)” value with armyworm (100 ppm) and in the test with armyworm (600 ppm) was 100% in each case. Further, the “protectant activity against wheat powdery mildew in vivo” value in the test on wheat powdery mildew amounted to 100%. Besides, the “control against carmine spider mite” value with carmine spider mite (setting [12]) and in the test with carmine spider mite (setting [13]) was 100% each time. Moreover, the “control effect against cucumber downy mildew (%)” value with cucumber downy mildew (6.25 mg/L), in the test with cucumber downy mildew (12.5 mg/L), in the test on cucumber downy mildew (25 mg/L), with cucumber downy mildew (50 mg/L), in the test on cucumber downy mildew (100 mg/L) and in the test on cucumber downy mildew (400 mg/L) was 100% throughout. In addition, the “protectant activity against cucumber downy mildew in vivo” value with cucumber downy mildew (6.25 ppm), in the test with cucumber downy mildew (12.5 ppm), in the test with cucumber downy mildew (25 ppm), in the test on cucumber downy mildew (50 ppm), in the test on cucumber downy mildew (100 ppm) and in the test with cucumber downy mildew (400 ppm) was 100% throughout.
